The text below walks through data of PubChem BioAssay AID1996.

What is called solubility (kinetic) is solubility judged after dilution from a stock solution rather than from solid.

The structures appear in SMILES notation. In brackets after ≈: the same amount, converted by molar mass. A value given as a limit tells only on which side of the number the result lay.

The conditions of the data set: buffer; pH 7.4; 200.0 µM.
`COc1cccc(C(=O)NC23CC4CC(CC(C4)C2)C3)c1` returned a kinetic solubility of 24.8 µg/mL (≈ 86.9 µM). `CC1=C(C(=O)Nc2ccccc2)C(c2cccs2)NC(=O)N1` (stereo unspecified) displayed a kinetic solubility of 41.3 µg/mL (≈ 132 µM). This solubility kinetic is about 1.7-fold higher than that of the compound before. In turn, `Cc1c(C(=O)N2c3ccccc3CC2C)oc2ccccc12` (stereo unspecified) returned a solubility (kinetic) of 0.7 µg/mL (≈ 2.4 µM). Then `N/C(=N\c1nc2ccccc2o1)NC(=O)/C=C/c1ccccc1`, with below 0.2 µg/mL; and `CCOc1ccc(-c2csc3ncn(-c4ccc(OC)cc4)c(=O)c23)cc1`, with 0.4 µg/mL (≈ 1.06 µM). For the compound `O=C(O)c1ccc[n+](Cc2ccc([N+](=O)[O-])cc2)c1.[Br-]`, the kinetic solubility was above 50.9 µg/mL. Take `CC(C)CN1C(=O)C(=O)N(CC(=O)c2ccc[nH]2)C1=O`: the solubility (kinetic) amounted to 40.7 µg/mL (≈ 147 µM). Compound `CCc1ccc(OCC(=O)Oc2ccc([N+](=O)[O-])cc2)cc1` came in with a kinetic solubility of 29.4 µg/mL (≈ 97.6 µM). Turning to `Cc1ccc(C(=O)COC(=O)c2cn3ccccc3n2)cc1`, the solubility (kinetic) was 4.1 µg/mL (≈ 13.9 µM). This solubility kinetic lies about 7.2-fold lower than the previous one.

`CCOC(=O)c1cnc2c(OC)cccc2c1Oc1ccccc1` returned a kinetic solubility of 7.2 µg/mL (≈ 22.3 µM). Under `C#CCSc1nc(=O)c2cccnc2n1-c1ccc(C)cc1` stands above 46.1 µg/mL; under `O=c1c2ccccc2nc(-c2ccccc2)n1-c1ccccc1`, 43.6 µg/mL (≈ 146 µM). Under `O=C1Nc2ccccc2O/C1=C\c1ccccc1` stands 1.2 µg/mL (≈ 5.06 µM); under `CCCCCCCCCCCCCCCC[N+](C)(C)CC.[Br-]`, 34.5 µg/mL. Under `Cc1ccc(NC(=O)N(C)c2ccccc2)cc1` stands above 36 µg/mL; under `O=C(COC(=O)c1cccc(OC(F)F)c1)Nc1cccc(S(=O)(=O)N2CCCC2)c1`, 10.9 µg/mL (≈ 24 µM). Compound `O=C(c1ccco1)N1CCN(C(=S)NC2CC3CCC2C3)CC1` (stereo unspecified) yielded a kinetic solubility of 46.8 µg/mL (≈ 140 µM). This solubility kinetic is about 4.3-fold higher than that of the compound before. In turn, `CCN(CC)c1c([N+](=O)[O-])c(=O)n(CC)c2ccccc12` had a solubility (kinetic) of 32.4 µg/mL (≈ 112 µM).

Consider `CC(C)N1C(=O)C(O)(C2COC(C)(C)CC2=O)c2ccccc21` (stereo unspecified), for which the solubility (kinetic) was above 47.6 µg/mL. Compound `O=C(N[C@@H](Cc1c[nH]c2ccccc12)C(=O)O)c1ccccc1Cl` yielded a solubility (kinetic) of 45.8 µg/mL (≈ 134 µM). The compound `O=C(O/N=C1/CCCc2occc21)c1ccc(Cl)cc1Cl` displayed a solubility (kinetic) below 0.7 µg/mL. Take `COc1ccccc1CNC(=O)COC(=O)/C=C/c1ccc2ccccc2n1`: the solubility (kinetic) stood at 9.8 µg/mL (≈ 26 µM). `C=CCN1CCN(c2ccncc2S(=O)(=O)N2CCCCC2)CC1` had a kinetic solubility above 52.6 µg/mL. The compound `O=C(CNS(=O)(=O)c1ccccc1)Nc1cccc([N+](=O)[O-])c1` gave a kinetic solubility of 49.1 µg/mL (≈ 146 µM). On to `On1c(-c2ccccc2)nc2ncccc21`, for which the kinetic solubility is above 31.7 µg/mL. `Fc1ccccc1-n1cc(-c2ccccc2)[nH]c1=S` displayed a solubility (kinetic) of 6.2 µg/mL (≈ 22.9 µM). Then `CSc1ccc(CN(C)C(=O)c2cc(Cl)c3c(c2)OCCO3)cc1`, with above 54.6 µg/mL; and `COc1ccc(CN(C)C(=O)COC(=O)c2cnc(Cl)c(Cl)c2)cc1`, with 53.1 µg/mL (≈ 139 µM); and `Cc1noc(C(=O)NC2CCCCC2)c1Cl`, with 35.6 µg/mL (≈ 147 µM).

Compound `Cc1sc2ncnc(SCC(=O)N3CCCCC3)c2c1C` displayed a kinetic solubility of 5.5 µg/mL (≈ 17.1 µM).

`O=C(Nc1cccc(O)c1)c1cc(-c2ccccc2Cl)on1`: the solubility (kinetic) came to 0.8 µg/mL (≈ 2.54 µM). As to `CCc1ccccc1OCC(=O)Nc1ccc2c(c1)OCCO2`, the kinetic solubility came to 15.9 µg/mL (≈ 50.7 µM).

With `CCOC(=O)CCn1c(=S)n(CCC(=O)OCC)c2ccccc21`, the kinetic solubility amounted to 49.5 µg/mL (≈ 141 µM). In turn, `O=C(CN1CCCCCC1)Nc1ccc(Br)cc1[N+](=O)[O-]` returned a solubility (kinetic) of 0.4 µg/mL (≈ 1.12 µM). `O=C(COc1cc(F)ccc1[N+](=O)[O-])NCC1CCCO1` (stereo unspecified) gave a solubility (kinetic) above 44.7 µg/mL.

The compound `Cc1cc(=O)[nH]c(Nc2ccccc2C)n1` had a kinetic solubility above 32.3 µg/mL. In the case of `CC(C)(C)c1ccc(OCCCCCCN2CCNCC2)cc1`, the kinetic solubility amounted to 31.9 µg/mL (≈ 100 µM). Under `CC1(C2CC2)NC(=O)N(CC(=O)Nc2ccc(F)cc2F)C1=O` (stereo unspecified) stands above 48.5 µg/mL; under `O=C(OCC(=O)N1CCCCC1)c1ccc2ccccc2n1`, above 44.7 µg/mL; under `O=C(Nc1ccccn1)c1ccc(C(=O)Nc2ccccn2)cc1`, 0.5 µg/mL (≈ 1.57 µM). For the compound `CSc1sc(C(=O)N(C)C)cc1S(=O)(=O)C(C)C`, the kinetic solubility is above 46.1 µg/mL. For the compound `COc1ccc(NC(=O)c2cc(-c3cccc(OC)c3)on2)cc1`, the solubility (kinetic) is below 0.3 µg/mL. In turn, `Cc1cccc(OCC(=O)NCCNC(=O)c2cnccn2)c1` registered a kinetic solubility of 46.5 µg/mL (≈ 148 µM). `Cc1ccccc1CN(C)C(C)C(=O)Nc1ccccc1F` (stereo unspecified): the kinetic solubility worked out at 8.1 µg/mL (≈ 27 µM). Regarding `COc1ccc(CNC(=O)c2cc3c(=O)[nH]c4ccccc4c3n2C)cc1`, the solubility (kinetic) is below 0.3 µg/mL. For `FC(F)Oc1ccc(NC(=S)NCc2nc3ccccc3[nH]2)cc1`, the solubility (kinetic) is above 52.3 µg/mL.

As to `COC(=O)CSc1nc(Cc2ccccc2)nc2ccccc12`, the kinetic solubility worked out at 10.7 µg/mL (≈ 33 µM).

In turn, `O=C(Nc1ccc(NC(=O)C2CC2)cn1)c1ccccc1` returned a kinetic solubility of 41.6 µg/mL (≈ 148 µM). Compared with the last compound, the solubility kinetic is about 3.9-fold higher.

For `Cc1ccc(S(=O)(=O)Nc2cnc3ccccc3c2)cc1`, the solubility (kinetic) is above 44.8 µg/mL. Take `COc1ccc(C(=O)Nc2nc(C)cc(C)n2)cc1`: the kinetic solubility is above 38.6 µg/mL. With `COc1cc(C)cc(CN2CCC(Cc3ccccc3)CC2)c1O`, the kinetic solubility is 44.5 µg/mL (≈ 137 µM).
